In ChEMBL document CHEMBL5260810, “Inhibition of bromodomain-containing protein 9 for the prevention of epigenetically-defined drug resistance” (Bioorg Med Chem Lett, 2017):

How the values were obtained:
[1] = biological target: TGF-beta receptor type-1 (Homo sapiens) (UniProt P36897); test: Inhibition of TGFBR1 (unknown origin) at 1 uM relative to control
NALM-6 = test: Cytotoxicity against human NALM-6 cells measured after 8 days; format: functional, cell-based; settings: NALM-6, 192 h
OCI-AML2 = test: Cytotoxicity against human OCI-AML2 cells measured after 8 days; format: functional, cell-based; settings: OCI-AML2, 192 h
NCI-H1930 = test: Cytotoxicity against human NCI-H1930 cells measured after 8 days; format: functional, cell-based; settings: NCI-H1930, 192 h
[2] = Cytotoxicity against human NCI-H196 cells measured after 8 days; format: functional, cell-based; settings: NCI-H196, 192 h
TMD8 = test: Cytotoxicity against human TMD8 cells measured after 8 days; format: functional, cell-based; settings: TMD8, 192 h
U2OS = test: Cytotoxicity against human U2OS cells measured after 8 days; format: functional, cell-based; settings: 192 h
[3] = Cytotoxicity against human NCE-G 28T cells measured after 8 days; format: functional, cell-based; settings: 192 h
[4] = Cytotoxicity against human NCE-G 59 cells measured after 8 days; format: functional, cell-based; settings: NCE-G 59, 192 h
GB-1 = test: Cytotoxicity against human GB-1 cells measured after 8 days; format: functional, cell-based; settings: GB-1, 192 h
Rec1 = test: Cytotoxicity against human REC1 cells measured after 8 days; format: functional, cell-based; settings: Rec1, 192 h
[5] = Cytotoxicity against human NB(TU)1 cells measured after 8 days; format: functional, cell-based; settings: NB(TU)1, 192 h
SK-N-SH = test: Cytotoxicity against human SK-N-SH cells measured after 8 days; format: functional, cell-based; settings: 192 h
HN = test: Cytotoxicity against human HN cells measured after 8 days; format: functional, cell-based; settings: 192 h
EFM-19 = test: Cytotoxicity against human EFM-19 cells measured after 8 days; format: functional, cell-based; settings: EFM-19, 192 h
DOV13 = test: Cytotoxicity against human DOV13 cells measured after 8 days; format: functional, cell-based; settings: DOV13, 192 h
EFO-27 = test: Cytotoxicity against human EFO-27 cells measured after 8 days; format: functional, cell-based; settings: EFO-27, 192 h
ES-2 = test: Cytotoxicity against human ES2 cells measured after 8 days; format: functional, cell-based; settings: ES-2, 192 h
SUM149PT = test: Cytotoxicity against human SUM149PT cells measured after 8 days; format: functional, cell-based; settings: 192 h
[6] = Cytotoxicity against human OVISE cells measured after 8 days; format: functional, cell-based; settings: 192 h
[7] = Cytotoxicity against human TYK-nu.CP-r cells measured after 8 days; format: functional, cell-based; settings: 192 h
ASPC1 = test: Cytotoxicity against human ASPC1 cells measured after 8 days; format: functional, cell-based; settings: ASPC1, 192 h
[8] = Cytotoxicity against human HCSC-1 cells measured after 8 days; format: functional, cell-based; settings: HCSC-1, 192 h
HT-3 = test: Cytotoxicity against human HT-3 cells measured after 8 days; format: functional, cell-based; settings: HT-3, 192 h
SKG-IIIa = test: Cytotoxicity against human SKG-IIIa cells measured after 8 days; format: functional, cell-based; settings: 192 h
[9] = Cytotoxicity against human PaTu 8902 cells measured after 8 days; format: functional, cell-based; settings: PaTu 8902, 192 h
C170 = test: Cytotoxicity against human C170 cells measured after 8 days; format: functional, cell-based; settings: C170, 192 h
[10] = Cytotoxicity against human HCC1263 cells measured after 8 days; format: functional, cell-based; settings: HCC1263, 192 h
[11] = Cytotoxicity against human PK-1 cells measured after 8 days; format: functional, cell-based; settings: PK-1, 192 h
[12] = Cytotoxicity against human BM-1604 cells measured after 8 days; format: functional, cell-based; settings: BM-1604, 192 h
SK-CO-1 = test: Cytotoxicity against human SK-CO-1 cells measured after 8 days; format: functional, cell-based; settings: SK-CO-1, 192 h
SW837 = test: Cytotoxicity against human SW837 cells measured after 8 days; format: functional, cell-based; settings: SW837, 192 h
A673 = test: Cytotoxicity against human A673 cells measured after 8 days; format: functional, cell-based; settings: A673, 192 h
[13] = Cytotoxicity against human 4498-14745 Mel-BR3 cells measured after 8 days; format: functional, cell-based; settings: 4498-14745 Mel-BR3, 192 h
[14] = Cytotoxicity against human C32TG cells measured after 8 days; format: functional, cell-based; settings: 192 h
COLO-679 = test: Cytotoxicity against human COLO-679 cells measured after 8 days; format: functional, cell-based; settings: COLO-679, 192 h
T84 = test: Cytotoxicity against human T84 cells measured after 8 days; format: functional, cell-based; settings: T84, 192 h
KYSE-270 = test: Cytotoxicity against human KYSE-270 cells measured after 8 days; format: functional, cell-based; settings: KYSE-270, 192 h
OE19 = test: Cytotoxicity against human OE19 cells measured after 8 days; format: functional, cell-based; settings: OE19, 192 h
[15] = Cytotoxicity against human OE21 cells measured after 8 days; format: functional, cell-based; settings: OE21, 192 h
[16] = Cytotoxicity against human COLO 818 cells measured after 8 days; format: functional, cell-based; settings: COLO 818, 192 h
[17] = Cytotoxicity against human COLO 849 cells measured after 8 days; format: functional, cell-based; settings: COLO 849, 192 h
769-P = test: Cytotoxicity against human 769-P cells measured after 8 days; format: functional, cell-based; settings: 192 h
A498 = test: Cytotoxicity against human A498 cells measured after 8 days; format: functional, cell-based; settings: A498, 192 h
BFTC-909 = test: Cytotoxicity against human BFTC-909 cells measured after 8 days; format: functional, cell-based; settings: BFTC-909, 192 h
[18] = Cytotoxicity against human KMRC-20 cells measured after 8 days; format: functional, cell-based; settings: KMRC-20, 192 h
MDA-MB-435 = test: Cytotoxicity against human MDA-MB-435 cells measured after 8 days; format: functional, cell-based; settings: MDA-MB-435, 192 h
[19] = Cytotoxicity against human MMAc cells measured after 8 days; format: functional, cell-based; settings: 192 h
Huh-7 = test: Cytotoxicity against human Huh-7 cells measured after 8 days; format: functional, cell-based; settings: Huh-7, 192 h
[20] = Cytotoxicity against human JHH-4 cells measured after 8 days; format: functional, cell-based; settings: JHH-4, 192 h
HGC-27 = test: Cytotoxicity against human HGC-27 cells measured after 8 days; format: functional, cell-based; settings: HGC-27, 192 h
Hs746T = test: Cytotoxicity against human Hs746T cells measured after 8 days; format: functional, cell-based; settings: 192 h
MKN-74 = test: Cytotoxicity against human MKN-74 cells measured after 8 days; format: functional, cell-based; settings: MKN-74, 192 h
[21] = Cytotoxicity against human COR-L26 cells measured after 8 days; format: functional, cell-based; settings: COR-L26, 192 h
BCPAP = test: Cytotoxicity against human BCPAP cells measured after 8 days; format: functional, cell-based; settings: 192 h
[22] = Cytotoxicity against human FTC-238 cells measured after 8 days; format: functional, cell-based; settings: FTC-238, 192 h
COLO-684 = test: Cytotoxicity against human COLO-684 cells measured after 8 days; format: functional, cell-based; settings: COLO-684, 192 h
[23] = Cytotoxicity against human HEC-59 cells measured after 8 days; format: functional, cell-based; settings: HEC-59, 192 h
[24] = Cytotoxicity against human HEC-6 cells measured after 8 days; format: functional, cell-based; settings: HEC-6, 192 h
KLE = test: Cytotoxicity against human KLE cells measured after 8 days; format: functional, cell-based; settings: 192 h
[25] = biological target: GABA-A receptor; alpha-1/beta-2/gamma-2 (Homo sapiens) (UniProt P14867+P47870+P18507); test: Inhibition of GABA alpha1/beta2/gamma2 (unknown origin) at 1 uM relative to control; format: protein-complex assay

TGF-beta receptor type-1 (Homo sapiens), sequence (P36897 whole entry): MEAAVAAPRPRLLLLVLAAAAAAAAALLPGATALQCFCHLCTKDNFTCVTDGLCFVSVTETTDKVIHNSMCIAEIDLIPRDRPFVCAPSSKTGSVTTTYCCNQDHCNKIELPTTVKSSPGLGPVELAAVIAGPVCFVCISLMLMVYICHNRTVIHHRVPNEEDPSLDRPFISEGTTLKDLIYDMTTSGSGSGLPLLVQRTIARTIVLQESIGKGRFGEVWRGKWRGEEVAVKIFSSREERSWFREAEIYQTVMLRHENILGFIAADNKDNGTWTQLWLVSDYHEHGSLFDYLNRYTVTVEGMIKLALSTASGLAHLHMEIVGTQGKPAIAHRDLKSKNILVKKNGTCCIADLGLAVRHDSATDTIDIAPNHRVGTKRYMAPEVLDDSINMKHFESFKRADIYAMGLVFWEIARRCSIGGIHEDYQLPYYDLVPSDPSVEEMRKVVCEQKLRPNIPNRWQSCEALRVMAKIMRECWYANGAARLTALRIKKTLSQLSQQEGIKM

C/C=C/Cn1cc(-c2cc(OC)c(C(=O)N3CCOCC3)cc2OC)c2cc(C)[nH]c2c1=O
-1.5%: inhibition [1]

C/C=C/Cn1cc(-c2ccc(C(C)(C)O)cc2OC)c2cc[nH]c2c1=O
14.4 µM: IC50 (HGC-27)
0%: inhibition [1]
16.4 µM: IC50 (Rec1)
14.2 µM: IC50 (OCI-AML2)
9.52 µM: IC50 [22]
4%: inhibition [25]
20 µM: IC50 (NALM-6) | IC50 (NCI-H1930) | IC50 [2] | IC50 (TMD8) | IC50 (U2OS) | IC50 [3] | IC50 [4] | IC50 (GB-1) | IC50 [5] | IC50 (SK-N-SH) | IC50 (HN) | IC50 (EFM-19) | IC50 (DOV13) | IC50 (EFO-27) | IC50 (ES-2) | IC50 (SUM149PT) | IC50 [6] | IC50 [7] | IC50 (ASPC1) | IC50 [8] | IC50 (HT-3) | IC50 (SKG-IIIa) | IC50 [9] | IC50 (C170) | IC50 [10] | IC50 [11] | IC50 [12] | IC50 (SK-CO-1) | IC50 (SW837) | IC50 (A673) | IC50 [13] | IC50 [14] | IC50 (COLO-679) | IC50 (T84) | IC50 (KYSE-270) | IC50 (OE19) | IC50 [15] | IC50 [16] | IC50 [17] | IC50 (769-P) | IC50 (A498) | IC50 (BFTC-909) | IC50 [18] | IC50 [19] | IC50 (Huh-7) | IC50 [20] | IC50 (Hs746T) | IC50 (MKN-74) | IC50 [21] | IC50 (BCPAP) | IC50 (COLO-684) | IC50 [23] | IC50 [24] | IC50 (KLE)
11.1 µM: IC50 (MDA-MB-435)

C/C=C/Cn1cc(-c2ccc(C(=O)N3CCOCC3)cc2)c2cc[nH]c2c1=O
18.8 µM: IC50 (NALM-6)
16.9 µM: IC50 (HGC-27)
8%: inhibition [25]
20 µM: IC50 (NCI-H1930) | IC50 [2] | IC50 (TMD8) | IC50 (U2OS) | IC50 [3] | IC50 [4] | IC50 (GB-1) | IC50 (Rec1) | IC50 [5] | IC50 (SK-N-SH) | IC50 (HN) | IC50 (EFM-19) | IC50 (DOV13) | IC50 (EFO-27) | IC50 (ES-2) | IC50 (SUM149PT) | IC50 [6] | IC50 [7] | IC50 (ASPC1) | IC50 [8] | IC50 (HT-3) | IC50 (SKG-IIIa) | IC50 [9] | IC50 (C170) | IC50 [10] | IC50 [11] | IC50 [12] | IC50 (SK-CO-1) | IC50 (SW837) | IC50 (A673) | IC50 [13] | IC50 [14] | IC50 (COLO-679) | IC50 (T84) | IC50 (KYSE-270) | IC50 (OE19) | IC50 [15] | IC50 [16] | IC50 [17] | IC50 (769-P) | IC50 (A498) | IC50 (BFTC-909) | IC50 [18] | IC50 (MDA-MB-435) | IC50 [19] | IC50 (Huh-7) | IC50 [20] | IC50 (Hs746T) | IC50 (MKN-74) | IC50 [21] | IC50 (BCPAP) | IC50 [22] | IC50 (COLO-684) | IC50 [23] | IC50 [24] | IC50 (KLE)
8.38 µM: IC50 (OCI-AML2)
